# Experimental data as given in patent US4708966A, “Novel anti-inflammatory agents, pharmaceutical compositions and methods for reducing inflammation” (The Procter & Gamble Company, priority 1986, dated 1987).
# Test system: adjuvant arthritis (modified Freund's adjuvant)
# Assay: Adjuvant Arthritis - Therapeutic
# Format: in vivo, Male Sprague-Dawley rats
# Details: 0.5 mg/kg, 1 x/day, oral, days 20 through 28
# Protocol: Adjuvant Arthritis Methodology
# Male Sprague-Dawley rats weighing 167-170 gm are allowed to acclimate to the laboratory for at least 3 days. Ten rats are then assigned to the healthy control group and the remaining rats are assigned to the arthritic group. On day 0, the rats in the arthritic group are injected subcutaneously in the middle of their tail with a modified Freund's adjuvant (MFA) at a dosage of 0.05 ml/100 gm body weight. The MFA is made by grinding Mycobacterium butyricum (Mb) and then mixing with mineral oil at a concentration of 10 mg Mb/ml of mineral oil. This is mixed in an Omni mixer for 45 minutes.
# Paw volumes and body weights are determined on days -1, 6, 13, 19, 26, and 29. On day 19, paw volume changes from day -1 are determined for the arthritic group. The rats with paw volume changes≥0.50 ml but ≤2.50 ml are randomized by paw volume changes into the treatment groups on day 20. […] On day 29, two representative rats from each treatment group are photographed, paw volumes and body weights are determined, and then the rats are sacrificed with CO2 and x-rays are taken.
# The radiographs are used to grade bone resorption. Bone resorption is graded in 20 areas of the fore and hind paws. The areas for grading on the hind paw are: distal femur end, proximal tibia and tibula, distal end of the tibia and the small bone under the tibia, calcaneous, tarsus, and metatarsus. The areas on the fore paws are: radius, ulna, carpus, and metacarpus. Each area is given a grade of 0 (no resorption) or 1 (resorption) for possible grade of 20 of each animal.
smiles,measurement,value
"COc1ccc2c(c1)c(CC(=O)O)c(C)n2C(=O)c1ccc(Cl)cc1 [Indomethacin, reference compound]",Body Weights % Increase,7%
same,Bone Resorption % Inhibition,15%
same,Paw Volume % Decrease,43%
